The values below come from patent US20260258050A1, “IMMUNOMODULATOR” (HITGEN INC., priority 2023, published 2026).

For this assay, the target named is T1, Human IL-17A (Homo sapiens, UniProt Q16552).
T1 sequence (Q16552 20-155 limits assumed): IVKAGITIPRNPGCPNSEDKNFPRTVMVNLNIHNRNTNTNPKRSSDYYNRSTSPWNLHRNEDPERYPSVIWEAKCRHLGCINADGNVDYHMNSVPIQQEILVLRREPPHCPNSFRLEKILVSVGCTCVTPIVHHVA
The assay is described as follows: IL-17A enzyme-linked immunosorbent assay (competitive ELISA, IL-17A/IL-17Ra receptor-ligand binding). Details: purchased Sino Biological Inc. 12047-H07B. The following applies: human IL-17A coated plate, human IL-17Ra, read-out: IC50, inhibitory activity of compounds on human IL-17A. The method, boiled down:
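Competitive ELISA with plates coated with human IL-17A at 0.2 μg/ml, blocked with 5% skim milk. Compound pre-incubated with IL-17A 10 min at 25 °C, then 16 nM IL-17Ra stock added for 30 min. Bound receptor detected by anti-Fc HRP/TMB, A450. IC50 from variable-slope fit of blank-corrected residual activity.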

In the case of `Cc1[nH]nc2c1-c1cc(F)c(NC(=O)[C@@H](NC(=O)c3ccnn3C(C)C)C(C3CC3)C3CC3)cc1CN(C(C)C(F)(F)F)C(=O)C2` (mixture of isomers) [compound 173], the half-maximal inhibitory concentration (IC50) is not above 50 nM. Regarding `Cc1[nH]nc2c1-c1cc(F)c(NC(=O)[C@@H](NC(=O)c3ccnn3C(C)C3CC3)C(C3CC3)C3CC3)cc1COCC2` (single isomer, unassigned) [compound 41a], the IC50 was not above 50 nM.

As for `Cc1[nH]nc2c1-c1cc(F)c(NC(=O)[C@@H](NC(=O)c3ccnn3C(C)C3CC3)C(C3CC3)C3CC3)cc1COCC2` (single isomer, unassigned) [compound 41b], the IC50 was not above 50 nM. As for `Cc1[nH]nc2c1-c1cc(F)c(NC(=O)[C@@H](NC(=O)c3ccnn3C(C)CF)C(C3CC3)C3CC3)cc1COCC2` (single isomer, unassigned) [compound 42a], the figure is not above 50 nM; as for `Cc1[nH]nc2c1-c1cc(F)c(NC(=O)[C@@H](NC(=O)c3ccnn3C(C)CF)C(C3CC3)C3CC3)cc1COCC2` (single isomer, unassigned) [compound 42b], not above 50 nM; as for `Cc1[nH]nc2c1-c1cc(F)c(NC(=O)[C@@H](NC(=O)c3ccnn3C(C)C)C(C3CC3)C3CC3)cc1CN(C(C)C(F)(F)F)C(=O)C2` (single isomer, unassigned) [compound 186a], not above 50 nM.

As for `Cc1[nH]nc2c1-c1cnc(NC(=O)[C@@H](NC(=O)c3ccnn3C(C)C3CC3)C(C3CC3)C3CC3)cc1COCC2` (single isomer, unassigned) [compound 188a], the IC50 was not above 50 nM. The same measure for `Cc1[nH]nc2c1-c1cnc(NC(=O)[C@@H](NC(=O)c3ccnn3C(C)C3CC3)C(C3CC3)C3CC3)cc1COCC2` (single isomer, unassigned) [compound 188b]: not above 50 nM; for `Cc1[nH]nc2c1-c1cnc(NC(=O)[C@@H](NC(=O)c3ccnn3C(C)CF)C(C3CC3)C3CC3)cc1COCC2` (single isomer, unassigned) [compound 189a]: not above 50 nM. As for `Cc1[nH]nc2c1-c1cnc(NC(=O)[C@@H](NC(=O)c3ccnn3C(C)CF)C(C3CC3)C3CC3)cc1COCC2` (single isomer, unassigned) [compound 189b], the figure is not above 50 nM; as for `Cc1[nH]nc2c1-c1ccc(NC(=O)[C@@H](NC(=O)c3ccnn3C)C(C3CC3)C3CC3)cc1COCC2` [compound 2], not above 50 nM; as for `Cc1[nH]nc2c1-c1cc(F)c(NC(=O)[C@@H](NC(=O)c3ccnn3C(C)C)C(C3CC3)C3CC3)cc1COCC2` [compound 15], not above 50 nM. The same measure for `CCn1nccc1C(=O)N[C@H](C(=O)Nc1cc2c(cc1F)-c1c(n[nH]c1C)CCOC2)C(C1CC1)C1CC1` [compound 16]: not above 50 nM; for `Cc1[nH]nc2c1-c1cc(F)c(NC(=O)[C@@H](NC(=O)c3ccnn3C)C(C3CC3)C3CC3)cc1COCC2` [compound 17]: not above 50 nM. Take `Cc1[nH]nc2c1-c1ccc(NC(=O)[C@@H](NC(=O)c3ccnn3C(C)C)C(C3CC3)C3CC3)cc1CN(C)C(=O)C2` [compound 22]: the IC50 is not above 50 nM. As to `CCn1nccc1C(=O)N[C@H](C(=O)Nc1ccc2c(c1)CN(C)C(=O)Cc1n[nH]c(C)c1-2)C(C1CC1)C1CC1` [compound 23], the IC50 is not above 50 nM. For the compound `Cc1[nH]nc2c1-c1ccc(NC(=O)[C@@H](NC(=O)c3ccnn3C(C)C)C(C3CC3)C3CC3)cc1CNC(=O)C2` [compound 27], the concentration for half-maximal inhibition (IC50) is not above 50 nM.

As for `CCn1nccc1C(=O)N[C@H](C(=O)Nc1ccc2c(c1)CNC(=O)Cc1n[nH]c(C)c1-2)C(C1CC1)C1CC1` [compound 28], the IC50 is not above 50 nM. Turning to `CCn1nccc1C(=O)N[C@H](C(=O)Nc1cc2c(cc1F)-c1c(n[nH]c1C)CCOC2)[C@H]1CC[C@H](C)CC1` [compound 46], the 50% inhibitory concentration (IC50) is not above 50 nM. As for `Cc1[nH]nc2c1-c1cc(F)c(NC(=O)[C@@H](NC(=O)c3ccnn3C(C)C)C3CCCCC3)cc1COCC2` [compound 48], the figure is not above 50 nM; as for `[2H]C([2H])([2H])C([2H])(n1nccc1C(=O)N[C@H](C(=O)Nc1ccc2c(c1)COCCc1n[nH]c(C)c1-2)C(C1CC1)C1CC1)C([2H])([2H])[2H]` [compound 52], not above 50 nM; as for `[2H]C([2H])([2H])C([2H])(n1nccc1C(=O)N[C@H](C(=O)Nc1cc2c(cn1)-c1c(n[nH]c1C)CCOC2)C(C1CC1)C1CC1)C([2H])([2H])[2H]` [compound 54], not above 50 nM. Consider `COCCCn1nccc1C(=O)N[C@H](C(=O)Nc1cc2c(cc1F)-c1c(n[nH]c1C)CCOC2)C(C1CC1)C1CC1` [compound 58], for which the IC50 is not above 50 nM. As for `Cc1[nH]nc2c1-c1cc(F)c(NC(=O)[C@@H](NC(=O)c3ccnn3CC3CC3)C(C3CC3)C3CC3)cc1COCC2` [compound 59], the figure is not above 50 nM; as for `Cc1[nH]nc2c1-c1cc(F)c(NC(=O)[C@@H](NC(=O)c3ccnn3CC3CCC3)C(C3CC3)C3CC3)cc1COCC2` [compound 60], not above 50 nM; as for `CSCCn1nccc1C(=O)N[C@H](C(=O)Nc1cc2c(cc1F)-c1c(n[nH]c1C)CCOC2)C(C1CC1)C1CC1` [compound 61], not above 50 nM. The same measure for `CCCn1nccc1C(=O)N[C@H](C(=O)Nc1cc2c(cc1F)-c1c(n[nH]c1C)CCOC2)C(C1CC1)C1CC1` [compound 62]: not above 50 nM; for `Cc1[nH]nc2c1-c1cc(F)c(NC(=O)[C@@H](NC(=O)c3ccnn3CCC(F)F)C(C3CC3)C3CC3)cc1COCC2` [compound 65]: not above 50 nM. As for `[2H]C([2H])(C1CC1)n1nccc1C(=O)N[C@H](C(=O)Nc1cc2c(cc1F)-c1c(n[nH]c1C)CCOC2)C(C1CC1)C1CC1` [compound 76], the figure is not above 50 nM; as for `Cc1[nH]nc2c1-c1cc(F)c(NC(=O)[C@@H](NC(=O)c3ccnn3CCC(O)C(F)(F)F)C(C3CC3)C3CC3)cc1COCC2` (some centres unmarked) [compound 81], not above 50 nM. For the compound `Cc1[nH]nc2c1-c1cc(F)c(NC(=O)[C@@H](NC(=O)c3ccnn3CCCC(F)(F)F)C(C3CC3)C3CC3)cc1COCC2` [compound 84], the half-inhibitory concentration (IC50) is not above 50 nM. As for `Cc1[nH]nc2c1-c1cc(F)c(NC(=O)[C@@H](NC(=O)c3ccnn3CCCF)C(C3CC3)C3CC3)cc1COCC2` [compound 86], the concentration for half-maximal inhibition (IC50) is not above 50 nM.

Take `Cc1[nH]nc2c1-c1cc(F)c(NC(=O)[C@@H](NC(=O)c3ccnn3CC(C)(F)F)C(C3CC3)C3CC3)cc1COCC2` [compound 87]: the IC50 was not above 50 nM. Turning to `Cc1[nH]nc2c1-c1cc(F)c(NC(=O)[C@@H](NC(=O)c3ccnn3CCC(F)(F)F)C(C3CC3)C3CC3)cc1COCC2` [compound 88], the IC50 was in the range of 50 to 150 nM. In the case of `[2H]C([2H])([2H])C([2H])(n1nccc1C(=O)N[C@H](C(=O)Nc1cc2c(cc1F)-c1c(n[nH]c1C)CCOC2)C(C1CC1)C1CC1)C([2H])([2H])[2H]` [compound 89], the IC50 is not above 50 nM. The same measure for `[2H]C([2H])([2H])C([2H])([2H])n1nccc1C(=O)N[C@H](C(=O)Nc1cc2c(cc1F)-c1c(n[nH]c1C)CCOC2)C(C1CC1)C1CC1` [compound 90]: not above 50 nM.

As for `Cc1[nH]nc2c1-c1cc(F)c(NC(=O)[C@@H](NC(=O)c3ccnn3CCOC(C)C)C(C3CC3)C3CC3)cc1COCC2` [compound 98], the IC50 was not above 50 nM. The same measure for `COCC(COC)n1nccc1C(=O)N[C@H](C(=O)Nc1cc2c(cc1F)-c1c(n[nH]c1C)CCOC2)C(C1CC1)C1CC1` [compound 99]: 50 to 150 nM.
